Molecular target: T1, Human orexin receptor type 2 (Homo sapiens, UniProt O43614)
T1 construct: expressed in transfected cells; host or cells: CHO cells (transient expression)
T1 sequence (O43614 1-444): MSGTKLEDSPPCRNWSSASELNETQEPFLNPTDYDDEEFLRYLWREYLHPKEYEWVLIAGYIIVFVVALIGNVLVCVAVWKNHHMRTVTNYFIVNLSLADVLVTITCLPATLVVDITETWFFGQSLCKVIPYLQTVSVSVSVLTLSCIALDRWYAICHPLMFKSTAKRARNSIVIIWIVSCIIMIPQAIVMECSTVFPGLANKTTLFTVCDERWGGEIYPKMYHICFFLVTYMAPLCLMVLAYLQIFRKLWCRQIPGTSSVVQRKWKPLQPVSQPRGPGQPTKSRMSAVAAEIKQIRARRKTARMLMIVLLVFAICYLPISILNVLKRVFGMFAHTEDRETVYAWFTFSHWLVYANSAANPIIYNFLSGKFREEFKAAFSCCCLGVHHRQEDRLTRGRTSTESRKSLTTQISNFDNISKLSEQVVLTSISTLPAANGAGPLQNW
Test: Test 1: Evaluation of agonist activity for orexin receptor type 2 (aequorin luminescence, intracellular calcium mobilization in CHO cells)
Assay type: cell-based
Settings: relative percentage of luminescence for the luminescence (100%) of Orexin A (100 pM); CHO cells transiently expressing human orexin receptor type 2 and apoaequorin; Orexin A Lot. 641114
Outline: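 CHO cells transiently expressing human OX2 receptor and apoaequorin, seeded 16-22 h, loaded with 1 μM coelenterazine hcp for 2 h at room temperature. Compound added in Hanks/20 mM HEPES/0.1% BSA, 0.1% DMSO final, and calcium luminescence measured. Activity expressed as percent of the 100 pM Orexin A response.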

Compound	agonist activity (%)
Cc1nc(C2(C)CCN(C(=O)O[C@@H]3[C@@H](N4CCN(C(C)C)CC4)CCCC3(F)F)CC2)no1 (racemic) [Example 10, rac-(1R,6S)-2,2-difluoro-6-[4-(propan-2-yl)piperazin-1-yl]cyclohexyl 4-methyl-4-(5-methyl-1,2,4-oxadiazol-3-yl)piperidine-1-carboxylate]	213%
CC(C)N1CCN([C@H]2CCCC(F)(F)[C@@H]2NC(=O)N2CCC(c3ccc(F)cn3)CC2)CC1 (racemic) [Example 52, rac-N-{(1R,6S)-2,2-difluoro-6-[4-(propan-2-yl)piperazin-1-yl]cyclohexyl}-4-(5-fluoropyridin-2-yl)piperidine-1-carboxamide]	113%
CC(C)N1CC[C@@H](O[C@H]2CCCC(F)(F)[C@@H]2NC(=O)N2CCC(C)(c3noc(C4CC4)n3)CC2)C1 [Example 64, 4-(5-cyclopropyl-1,2,4-oxadiazol-3-yl)-N-[(1R,6S)-2,2-difluoro-6-{[(3R)-1-(propan-2-yl)pyrrolidin-3-yl]oxy}cyclohexyl]-4-methylpiperidine-1-carboxamide]	204%
CC(C)N1CCN([C@H]2CCCC(F)(F)[C@@H]2NC(=O)N2CCC(F)(c3ccccn3)CC2)CC1 (racemic) [Example 46, rac-N-{(1R,6S)-2,2-difluoro-6-[4-(propan-2-yl)piperazin-1-yl]cyclohexyl}-4-fluoro-4-(pyridin-2-yl)piperidine-1-carboxamide]	136%
CC(C)N1CC=C(C2=CCCCC2NC(=O)N2CCC(C)(c3noc(C4CC4)n3)CC2)CC1 (racemic) [Example 18, rac-4-(5-Cyclopropyl-1,2,4-oxadiazol-3-yl)-4-methyl-N-{2-[1-(propan-2-yl)-1,2,3,6-tetrahydropyridin-4-yl]cyclohex-2-en-1-yl}piperidine-1-carboxamide]	73%
CC(C)N1CCN([C@H]2CCCC(F)(F)[C@@H]2NC(=O)N2CCC(C)(c3nnc(C4CC4)s3)CC2)CC1 (racemic) [Example 34, rac-4-(5-cyclopropyl-1,3,4-thiadiazol-2-yl)-N-{(1R,6S)-2,2-difluoro-6-[4-(propan-2-yl)piperazin-1-yl]cyclohexyl}-4-methylpiperidine-1-carboxamide]	183%
CC(C)N1C[C@H](O[C@H]2CCCC(F)(F)[C@@H]2NC(=O)N2CCC(C)(c3noc(C4CC4)n3)CC2)[C@@H](F)C1 [Example 75, 4-(5-cyclopropyl-1,2,4-oxadiazol-3-yl)-N-[(1R,6S)-2,2-difluoro-6-{[(3S,4S)-4-fluoro-1-(propan-2-yl)pyrrolidin-3-yl]oxy}cyclohexyl]-4-methylpiperidine-1-carboxamide]	141%
CO[C@H]1CCC[C@H](N2CCN(C(C)C)CC2)[C@H]1NC(=O)N1CCC(c2ccc(C)cc2)CC1 (racemic) [Example 4, rac-N-{(1R,2S,6S)-2-methoxy-6-[4-(propan-2-yl)piperazin-1-yl]cyclohexyl}-4-(4-methylphenyl)piperidine-1-carboxamide]	62%
CC(C)N1CCN([C@H]2CCCC(F)(F)[C@@H]2NC(=O)N2CCC(C)(c3noc([C@@H]4C[C@@H]4F)n3)CC2)CC1 [Example 66, N-{(1R,6S)-2,2-difluoro-6-[4-(propan-2-yl)piperazin-1-yl]cyclohexyl}-4-{5-[(1S,2S)-2-fluorocyclopropyl]-1,2,4-oxadiazol-3-yl}-4-methylpiperidine-1-carboxamide]	144%
Cc1ccc(C2(C)CCN(C(=O)N[C@@H]3[C@@H](N4CCN(C(C)C)CC4)CCCC3(F)F)CC2)cc1 (racemic) [Example 58, rac-N-{(1R,6S)-2,2-difluoro-6-[4-(propan-2-yl)piperazin-1-yl]cyclohexyl}-4-methyl-4-(4-methylphenyl)piperidine-1-carboxamide]	150%
CC(C)N1CCN([C@H]2CCCC(F)(F)[C@@H]2NC(=O)N2CCC(C)(c3noc(C4CC4)n3)CC2)CC1 [Example 24, 4-(5-cyclopropyl-1,2,4-oxadiazol-3-yl)-N-{(1R,6S)-2,2-difluoro-6-[4-(propan-2-yl)piperazin-1-yl]cyclohexyl}-4-methylpiperidine-1-carboxamide]	210%
COc1nc(C2(C)CCN(C(=O)N[C@@H]3[C@@H](N4CCN(C(C)C)CC4)CCCC3(F)F)CC2)ns1 (racemic) [Example 45, rac-N-{(1R,6S)-2,2-difluoro-6-[4-(propan-2-yl)piperazin-1-yl]cyclohexyl}-4-(5-methoxy-1,2,4-thiadiazol-3-yl)-4-methylpiperidine-1-carboxamide]	150%
CC(C)N1CCN([C@H]2CCCC(F)(F)[C@@H]2NC(=O)N2CCC(C)(c3cc(C4CC4)on3)CC2)CC1 [Example 25, 4-(5-cyclopropyl-1,2-oxazol-3-yl)-N-{(1R,6S)-2,2-difluoro-6-[4-(propan-2-yl)piperazin-1-yl]cyclohexyl}-4-methylpiperidine-1-carboxamide]	165%
Cc1ccc(C2(C)CCN(C(=O)N[C@@H]3[C@@H](O[C@@H]4CCN(C(C)C)C4)CCCC3(F)F)CC2)cc1 [Example 67, N-[(1R,6S)-2,2-difluoro-6-{[(3R)-1-(propan-2-yl)pyrrolidin-3-yl]oxy}cyclohexyl]-4-methyl-4-(4-methylphenyl)piperidine-1-carboxamide]	175%
Cc1cnc(C2CCN(C(=O)N[C@@H]3[C@@H](N4CCN(C(C)C)CC4)CCCC3(F)F)CC2)c(F)c1 (racemic) [Example 51, rac-N-{(1R,6S)-2,2-difluoro-6-[4-(propan-2-yl)piperazin-1-yl]cyclohexyl}-4-(3-fluoro-5-methylpyridin-2-yl)piperidine-1-carboxamide]	149%
CC(C)N1CCN([C@H]2CCCC(F)(F)[C@@H]2NC(=O)N2CCC(C)(c3nc4ccccc4o3)CC2)CC1 (racemic) [Example 21, rac-4-(1,3-benzoxazol-2-yl)-N-{(1R,6S)-2,2-difluoro-6-[4-(propan-2-yl)piperazin-1-yl]cyclohexyl}-4-methylpiperidine-1-carboxamide]	153%
CC(C)N1CCN([C@H]2CCCC(F)(F)[C@@H]2NC(=O)N2CCC(C)(c3nsc(C4CC4)n3)CC2)CC1 (racemic) [Example 31, rac-4-(5-cyclopropyl-1,2,4-thiadiazol-3-yl)-N-{(1R,6S)-2,2-difluoro-6-[4-(propan-2-yl)piperazin-1-yl]cyclohexyl}-4-methylpiperidine-1-carboxamide]	168%
Cc1ccc(C2(C)CCN(C(=O)N[C@@H]3[C@@H](N4C5CCC4CN(C(C)C)C5)CCCC3(F)F)CC2)cc1 [Example 63, N-{(1R,6S)-2,2-difluoro-6-[3-(propan-2-yl)-3,8-diazabicyclo[3.2.1]octan-8-yl]cyclohexyl}-4-methyl-4-(4-methylphenyl)piperidine-1-carboxamide]	149%
CC(C)N1CC2CCC(C1)N2[C@H]1CCCC(F)(F)[C@@H]1NC(=O)N1CCC(C)(c2noc(C3CC3)n2)CC1 [Example 62, 4-(5-cyclopropyl-1,2,4-oxadiazol-3-yl)-N-{(1R,6S)-2,2-difluoro-6-[3-(propan-2-yl)-3,8-diazabicyclo[3.2.1]octan-8-yl]cyclohexyl}-4-methylpiperidine-1-carboxamide]	174%
CC(C)N1CCN([C@H]2CCCC(F)(F)[C@@H]2OC(=O)N2CCC(C)(c3noc(C4CC4)n3)CC2)CC1 (racemic) [Example 9, rac-(1R,6S)-2,2-difluoro-6-[4-(propan-2-yl)piperazin-1-yl]cyclohexyl 4-(5-cyclopropyl-1,2,4-oxadiazol-3-yl)-4-methylpiperidine-1-carboxylate]	207%
CC(C)N1CCN([C@H]2CCCC(F)(F)[C@@H]2NC(=O)N2CCC(O)(c3ccc(Cl)cc3)CC2)CC1 (racemic) [Example 41, rac-4-(4-chlorophenyl)-N-{(1R,6S)-2,2-difluoro-6-[4-(propan-2-yl)piperazin-1-yl]cyclohexyl}-4-hydroxypiperidine-1-carboxamide]	23%
CC(C)c1ccc(C2=CCCCC2NC(=O)N2CCC(C)(c3cc(C4CC4)on3)CC2)cn1 (racemic) [Example 15, rac-4-(5-cyclopropyl-1,2-oxazol-3-yl)-4-methyl-N-{2-[6-(propan-2-yl)pyridin-3-yl]cyclohex-2-en-1-yl}piperidine-1-carboxamide]	62%

— patent US12162872B2, “Cycloalkylurea derivative” (Sumitomo Pharma Co., Ltd., priority 2019, dated 2024)
